Patent US20250326748A1, “COMPOUNDS AND METHODS FOR MODULATING SPLICING” (REMIX THERAPEUTICS INC., priority 2022, published 2025)

Assays:
[1] = system: SMN2 mRNA; test: Splicing RT-qPCR panel, SMN2 canonical junction (CJ) mRNA; assay type: cell-based, human; details: Homo sapiens, read-out: SMN2 CJ (decrease in CJ mRNA levels, IC50)
Summary of the method: (§1)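 A673 cells (DMEM, 10% FBS) or K562 cells (IMDM, 10% FBS) treated 24 h at 37 °C with an 11-point 3-fold dilution, top 10 uM, DMSO ≤0.25%. Canonical-junction mRNA quantified in lysates by RT-qPCR, normalised to GAPDH, GUSB or PPIA and to DMSO (2^−ΔΔCt), then converted to % response.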

[2] = system: Target C mRNA; test: Splicing RT-qPCR panel, Target C canonical junction (CJ) mRNA; assay type: cell-based, human; details: Homo sapiens, read-out: Target C CJ (decrease in CJ mRNA levels, IC50)
Summary of the method: as §1

[3] = system: HiBiT-tagged HTT protein; test: HiBiT protein abundance assay, HTT (K562 HiBiT knock-in); assay type: cell-based, human; details: HiBiT knock-in cells, 24 hours
Summary of the method: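 Endogenously HiBiT-tagged K562 knock-in lines treated 24 h at 37 °C with 10-point 3-fold dilutions (top 10 μM final, DMSO ≤0.25%) in IMDM+1% FBS. Lytic Nano-Glo luminescence normalized to DMSO and unmodified K562 controls; four-parameter fit gives 50%-abundance concentration (IC50).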

[4] = system: K562 cells; test: Cell viability, Cell Titer Glo 2.0 assay, K562; details: 72 hours

SMILES | IC50 [1] | IC50 [2] | IC50 [3] | Effect on Cell Viability, K562 [4]
CN[C@@H]1CCN(c2cnc3nc(-c4cc(F)c5nc(C)cn5c4)ncc3c2)C1 [Compound 202, (3R)-1-(2-{8-fluoro-2-methylimidazo[1,2-a]pyridin-6-yl}pyrido[2,3-d]pyrimidin-6-yl)-N-methylpyrrolidin-3-amine] | < 100 nM | 100 to 1000 nM | 100 to 1000 nM | B (100-1000 nM)
CNC1CCN(c2cnc3nc(-c4cc5cn(C)nc5c(C)c4O)cc(Cl)c3n2)C1 (stereo not shown) [Compound 193, 5-{8-chloro-2-[3-(methylamino)355pyrrolidine-1-yl]pyrido[2,3-b]pyrazin-6-yl}-2,7-dimethylindazol-6-ol] | < 100 nM | 100 to 1000 nM | 100 to 1000 nM | 
Cc1nc2c(C)c(O)c(-c3cnc4cc(N5CCC(NC6CC6)C5)ccc4n3)cc2o1 (stereo not shown) [Compound 182, 6-[6-[3-(cyclopropylamino)pyrrolidin-1-yl]quinoxalin-2-yl]-2,4-dimethyl-1,3-benzoxazol-5-ol] | < 100 nM | 100 to 1000 nM | < 100 nM | A (<100 nM)
Cn1cc2cc(-c3cnc4cc(N5CCC(NC6CC6)C5)ccc4n3)c(O)c(F)c2n1 (stereo not shown) [Compound 175, 5-[6-[3-(cyclopropylamino)pyrrolidin-1-yl]quinoxalin-2-yl]-7-fluoro-2-methyl-indazol-6-ol] | < 100 nM | 100 to 1000 nM | < 100 nM | A (<100 nM)
Cc1cn2nc(-c3ccc4cc(N(C)C5CCNCC5)cnc4n3)cc(C)c2n1 [Compound 205, 7-{2,8-dimethylimidazo[1,2-b]pyridazin-6-yl}-N-methyl-N-(piperidin-4-yl)-1,8-naphthyridin-3-amine] | 100 to 1000 nM | > 10000 nM | > 10000 nM | 
Cn1cc2cc(-c3ccc4cc(N5CC[C@@H](NC(C)(C)C)C5)cnc4n3)c(O)cc2n1 [Compound 199] | 100 to 1000 nM | 1000 to 10000 nM | 1000 to 10000 nM | 

The next lines start with results.

IC50 [1] | IC50 [2] | IC50 [3] | SMILES | Effect on Cell Viability, K562 [4]
< 100 nM | > 10000 nM | 1000 to 10000 nM | C[C@@H]1CN(c2cnc3nc(-c4cc(F)c5nn(C)cc5c4)cc(Cl)c3c2)C[C@@H](C)N1 [Compound 251] | B (100-1000 nM)
< 100 nM | 100 to 1000 nM | < 100 nM | COc1nc(-c2cc3cn(C)nc3c(F)c2O)nc2ncc(N3C[C@@H](C)N[C@@H](C)C3)cc12 [Compound 218] | A (<100 nM)
< 100 nM | 100 to 1000 nM | < 100 nM | COc1nc(-c2cc3cn(C)nc3c(F)c2O)nc2ncc(N3CCC(N(C)C)CC3)cc12 [Compound 219, 5-{6-[4-(dimethylamino)piperidin-1-yl]-4-methoxypyrido[2,3-d]pyrimidin-2-yl}-7-fluoro-2-methylindazol-6-ol] | A (<100 nM)
< 100 nM | 100 to 1000 nM | < 100 nM | CN(C)[C@@H]1CCN(c2cnc3nc(-c4cc5cn(C)nc5c(F)c4O)cc(Cl)c3c2)C1 [Compound 220] | A (<100 nM)
100 to 1000 nM | > 10000 nM | 1000 to 10000 nM | CNC1CCN(c2cnc3nc(-c4cc5cn(C)nc5c(C)c4O)cc(OC)c3n2)C1 (stereo not shown) [Compound 194, 5-{8-methoxy-2-[3-(methylamino)360pyrrolidine-1-yl]pyrido[2,3-b]pyrazin-6-yl}-2,7-dimethylindazol-6-ol] | 
< 100 nM | 1000 to 10000 nM | 100 to 1000 nM | CNC1CCN(c2cnc3nc(-c4cc5cn(C)nc5c(C)c4O)nc(OC)c3c2)C1 (stereo not shown) [Compound 161, 5-{4-methoxy-6-[3-(methylamino)pyrrolidin-1-yl]pyrido[2,3-d]pyrimidin-2-yl}-2,7-dimethylindazol-6-ol] | 
< 100 nM | 1000 to 10000 nM | 100 to 1000 nM | COc1nc(-c2cc3cn(C)nc3c(C)c2O)nc2ncc(N3CCNCC3)cc12 [Compound 162, 5-[4-methoxy-6-(piperazin-1-yl)pyrido[2,3-d]pyrimidin-2-yl]-2,7-dimethylindazol-6-ol] | 
